From ChEMBL document CHEMBL3885881, “DrugMatrix”

Species on record: Rattus norvegicus
Assay: DrugMatrix - Regimen: Daily Repeat
Type: toxicity, organism-based, Sprague-Dawley
Parameters: regimen Daily Repeat, gender Male, age 6-8 weeks
Conditions: in vivo, po, route oral GAVAGE, vehicle 100 % WATER; for ABSOLUTE BASOPHIL / ABSOLUTE EOSINOPHIL / ABSOLUTE LYMPHOCYTE / ABSOLUTE MONOCYTE / ABSOLUTE SEGMENTED NEUTROPHIL / BASOPHIL / EOSINOPHIL / ERYTHROCYTE COUNT / HEMATOCRIT / HEMOGLOBIN / LEUKOCYTE COUNT / LYMPHOCYTE / MEAN CORPUSCULAR HEMOGLOBIN / MEAN CORPUSCULAR HEMOGLOBIN CONCENTRATION / MEAN CORPUSCULAR VOLUME / MONOCYTE / NEUTROPHIL / NUCLEATED RED BLOOD CELLS / PLATELET COUNT: tissue Blood; for ALANINE AMINOTRANSFERASE / ALBUMIN / ALKALINE PHOSPHATASE / ASPARTATE AMINOTRANSFERASE / BLOOD UREA NITROGEN / CARBON DIOXIDE / CHLORIDE / CHOLESTEROL / CREATINE PHOSPHOKINASE / CREATININE / GLUCOSE / LACTATE DEHYDROGENASE / LIPASE / PHOSPHORUS / POTASSIUM / SODIUM / TOTAL BILIRUBIN / TOTAL PROTEIN / URIC ACID: tissue Plasma
[1] = 25 mg/kg, 120 h, dose level High, time 5 day
[2] = […], 72 h, dose 6.3 mg/Kg, dose level Low, time 3 day
[3] = […], 120 h, dose 6.3 mg/Kg, dose level Low, time 5 day

For `O=P1(N(CCCl)CCCl)NCCCO1` (centres undefined) [CYCLOPHOSPHAMIDE ANHYDROUS], the “ABSOLUTE BASOPHIL” value [1] was 0 CELLS/uL, the “ABSOLUTE EOSINOPHIL” value [1] was 0 CELLS/uL and the “ABSOLUTE LYMPHOCYTE” value [1] was 1111.67 CELLS/uL. For the same molecule, the “ABSOLUTE MONOCYTE” value [1] was 4.33 CELLS/uL, the “ABSOLUTE SEGMENTED NEUTROPHIL” value [1] was 117.33 CELLS/uL and the BASOPHIL [1] was 0%. The EOSINOPHIL [1] was 0%, the “ERYTHROCYTE COUNT” value [1] was 4.84 x10E6/uL and the HEMATOCRIT [1] was 29.43%. For the same molecule, the HEMOGLOBIN [1] was 11.47 G/DL, the “LEUKOCYTE COUNT” value [1] was 1.23 x10E3/uL and the LYMPHOCYTE [1] was 90.33%. For the same molecule, the “MEAN CORPUSCULAR HEMOGLOBIN” value [1] was 23.77 pg, the “MEAN CORPUSCULAR HEMOGLOBIN CONCENTRATION” value [1] was 39 G/DL and the “MEAN CORPUSCULAR VOLUME” value [1] was 60.93 fL. The MONOCYTE [1] was 0.33%, the NEUTROPHIL [1] was 9.33% and the “NUCLEATED RED BLOOD CELLS” value [1] was 0 /100WBC. The “PLATELET COUNT” value [1] was 645 x10E3/uL, the “ALANINE AMINOTRANSFERASE” value [1] was 44.33 u/L and the ALBUMIN [1] was 3.8 G/DL. For the same molecule, the “ALKALINE PHOSPHATASE” value [1] was 227.67 u/L, the “ASPARTATE AMINOTRANSFERASE” value [1] was 67.33 u/L and the “BLOOD UREA NITROGEN” value [1] was 15.33 mg/dL. For the same molecule, the “CARBON DIOXIDE” value [1] was 31 mmol/L, the CHLORIDE [1] was 102.33 MEQ/L and the CHOLESTEROL [1] was 78.67 mg/dL. The “CREATINE PHOSPHOKINASE” value [1] was 231 u/L, the CREATININE [1] was 0.16 mg/dL and the GLUCOSE [1] was 147.67 mg/dL. For the same molecule, the “LACTATE DEHYDROGENASE” value [1] was 83.33 u/L, the LIPASE [1] was 8.33 u/L and the PHOSPHORUS [1] was 9.97 mg/dL. The POTASSIUM [1] was 5.36 MEQ/L, the SODIUM [1] was 144.37 MEQ/L and the “TOTAL BILIRUBIN” value [1] was 0.1 mg/dL. For the same molecule, the “TOTAL PROTEIN” value [1] was 5.37 G/DL, the “URIC ACID” value [1] was 0.33 mg/dL and the “ABSOLUTE BASOPHIL” value [2] was 0 CELLS/uL. For the same molecule, the “ABSOLUTE EOSINOPHIL” value [2] was 0 CELLS/uL, the “ABSOLUTE LYMPHOCYTE” value [2] was 7172.67 CELLS/uL and the “ABSOLUTE MONOCYTE” value [2] was 29.33 CELLS/uL. The “ABSOLUTE SEGMENTED NEUTROPHIL” value [2] was 531.33 CELLS/uL, the BASOPHIL [2] was 0% and the EOSINOPHIL [2] was 0%. For the same molecule, the “ERYTHROCYTE COUNT” value [2] was 5.43 x10E6/uL, the HEMATOCRIT [2] was 33.63% and the HEMOGLOBIN [2] was 13.3 G/DL. The “LEUKOCYTE COUNT” value [2] was 7.73 x10E3/uL, the LYMPHOCYTE [2] was 92.67% and the “MEAN CORPUSCULAR HEMOGLOBIN” value [2] was 24.53 pg. The “MEAN CORPUSCULAR HEMOGLOBIN CONCENTRATION” value [2] was 39.53 G/DL, the “MEAN CORPUSCULAR VOLUME” value [2] was 62.03 fL and the MONOCYTE [2] was 0.33%. The NEUTROPHIL [2] was 7%, the “NUCLEATED RED BLOOD CELLS” value [2] was 0 /100WBC and the “PLATELET COUNT” value [2] was 1008 x10E3/uL. The “ALANINE AMINOTRANSFERASE” value [2] was 63.67 u/L, the ALBUMIN [2] was 4.1 G/DL and the “ALKALINE PHOSPHATASE” value [2] was 374 u/L. For the same molecule, the “ASPARTATE AMINOTRANSFERASE” value [2] was 82.67 u/L, the “BLOOD UREA NITROGEN” value [2] was 14 mg/dL and the “CARBON DIOXIDE” value [2] was 34.33 mmol/L. For the same molecule, the CHLORIDE [2] was 99.5 MEQ/L, the CHOLESTEROL [2] was 93.33 mg/dL and the “CREATINE PHOSPHOKINASE” value [2] was 214.67 u/L. The CREATININE [2] was 0.13 mg/dL, the GLUCOSE [2] was 141.67 mg/dL and the “LACTATE DEHYDROGENASE” value [2] was 136 u/L. For the same molecule, the LIPASE [2] was 12.67 u/L, the PHOSPHORUS [2] was 11.2 mg/dL and the POTASSIUM [2] was 5.83 MEQ/L. The SODIUM [2] was 145.15 MEQ/L, the “TOTAL BILIRUBIN” value [2] was 0.23 mg/dL and the “TOTAL PROTEIN” value [2] was 5.9 G/DL. The “URIC ACID” value [2] was 0.6 mg/dL, the “ABSOLUTE BASOPHIL” value [3] was 0 CELLS/uL and the “ABSOLUTE EOSINOPHIL” value [3] was 11 CELLS/uL. The “ABSOLUTE LYMPHOCYTE” value [3] was 3359 CELLS/uL, the “ABSOLUTE MONOCYTE” value [3] was 20 CELLS/uL and the “ABSOLUTE SEGMENTED NEUTROPHIL” value [3] was 610 CELLS/uL. The BASOPHIL [3] was 0%, the EOSINOPHIL [3] was 0.33% and the “ERYTHROCYTE COUNT” value [3] was 5.53 x10E6/uL. For the same molecule, the HEMATOCRIT [3] was 34.97%, the HEMOGLOBIN [3] was 13.43 G/DL and the “LEUKOCYTE COUNT” value [3] was 4 x10E3/uL. For the same molecule, the LYMPHOCYTE [3] was 84%, the “MEAN CORPUSCULAR HEMOGLOBIN” value [3] was 24.37 pg and the “MEAN CORPUSCULAR HEMOGLOBIN CONCENTRATION” value [3] was 38.43 G/DL. For the same molecule, the “MEAN CORPUSCULAR VOLUME” value [3] was 63.33 fL, the MONOCYTE [3] was 0.67% and the NEUTROPHIL [3] was 15%. The “NUCLEATED RED BLOOD CELLS” value [3] was 0 /100WBC, the “PLATELET COUNT” value [3] was 1266.67 x10E3/uL and the “ALANINE AMINOTRANSFERASE” value [3] was 56.33 u/L. For the same molecule, the ALBUMIN [3] was 4.03 G/DL, the “ALKALINE PHOSPHATASE” value [3] was 346.33 u/L and the “ASPARTATE AMINOTRANSFERASE” value [3] was 83.33 u/L. The “BLOOD UREA NITROGEN” value [3] was 14 mg/dL, the “CARBON DIOXIDE” value [3] was 31.33 mmol/L and the CHLORIDE [3] was 99.5 MEQ/L. For the same molecule, the CHOLESTEROL [3] was 65.67 mg/dL, the “CREATINE PHOSPHOKINASE” value [3] was 216.33 u/L and the CREATININE [3] was 0.2 mg/dL. For the same molecule, the GLUCOSE [3] was 137.33 mg/dL, the “LACTATE DEHYDROGENASE” value [3] was 136 u/L and the LIPASE [3] was 10.33 u/L. For the same molecule, the PHOSPHORUS [3] was 10.6 mg/dL, the POTASSIUM [3] was 5.74 MEQ/L and the SODIUM [3] was 145.9 MEQ/L. The “TOTAL BILIRUBIN” value [3] was 0.17 mg/dL, the “TOTAL PROTEIN” value [3] was 5.9 G/DL and the “URIC ACID” value [3] was 0.53 mg/dL.
